Results taken from PubChem BioAssay (NCI).
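96-well plates; 48 h exposure; 5 concentrations. Endpoints by linear interpolation between flanking doses. Not reached: highest tested concentration assigned. At the GI50, growth is halved. TGI is the concentration that stops growth completely.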

Key:
Assay in all cases: NCI anticancer screen, dose series, 48 h
786-0 renal = test system: 786-0 renal
A498 renal = test system: A498 renal
A549 NSCLC = test system: A549 NSCLC
ACHN renal = test system: ACHN renal
BT-549 breast = test system: BT-549 breast
CAKI-1 renal = test system: CAKI-1 renal
CCRF-CEM leukemia = test system: CCRF-CEM leukemia
COLO 205 colon = test system: COLO 205 colon
DU-145 prostate = test system: DU-145 prostate
EKVX NSCLC = test system: EKVX NSCLC
HCC-2998 colon = test system: HCC-2998 colon
HCT-116 colon = test system: HCT-116 colon
HCT-15 colon = test system: HCT-15 colon
HL-60(TB) leukemia = test system: HL-60(TB) leukemia
HOP-62 NSCLC = test system: HOP-62 NSCLC
HOP-92 NSCLC = test system: HOP-92 NSCLC
HS 578T breast = test system: HS 578T breast
HT29 colon = test system: HT29 colon
IGROV1 ovarian = test system: IGROV1 ovarian
K-562 leukemia = test system: K-562 leukemia
KM12 colon = test system: KM12 colon
LOX IMVI melanoma = test system: LOX IMVI melanoma
M14 melanoma = test system: M14 melanoma
MALME-3M melanoma = test system: MALME-3M melanoma
MCF7 breast = test system: MCF7 breast
MDA-MB-231 breast = test system: MDA-MB-231 breast
MDA-MB-435 = test system: MDA-MB-435
MDA-MB-468 breast = test system: MDA-MB-468 breast
MOLT-4 leukemia = test system: MOLT-4 leukemia
NCI-H226 lung = test system: NCI-H226 lung
NCI-H23 lung = test system: NCI-H23 lung
NCI-H460 lung = test system: NCI-H460 lung
NCI-H522 lung = test system: NCI-H522 lung
NCI/ADR-RES ovarian = test system: NCI/ADR-RES ovarian
OVCAR-3 ovarian = test system: OVCAR-3 ovarian
OVCAR-4 ovarian = test system: OVCAR-4 ovarian
OVCAR-5 ovarian = test system: OVCAR-5 ovarian
OVCAR-8 ovarian = test system: OVCAR-8 ovarian
PC-3 prostate = test system: PC-3 prostate
RPMI-8226 leukemia = test system: RPMI-8226 leukemia
RXF 393 renal = test system: RXF 393 renal
SF-268 CNS = test system: SF-268 CNS
SF-295 CNS = test system: SF-295 CNS
SF-539 CNS = test system: SF-539 CNS
SK-MEL-2 melanoma = test system: SK-MEL-2 melanoma
SK-MEL-28 melanoma = test system: SK-MEL-28 melanoma
SK-MEL-5 melanoma = test system: SK-MEL-5 melanoma
SK-OV-3 ovarian = test system: SK-OV-3 ovarian
SN12C renal = test system: SN12C renal
SNB-19 CNS = test system: SNB-19 CNS
SNB-75 CNS = test system: SNB-75 CNS
SR leukemia = test system: SR leukemia
SW-620 colon = test system: SW-620 colon
T-47D breast = test system: T-47D breast
TK-10 renal = test system: TK-10 renal
U251 CNS = test system: U251 CNS
UACC-257 melanoma = test system: UACC-257 melanoma
UACC-62 melanoma = test system: UACC-62 melanoma
UO-31 renal = test system: UO-31 renal

## CN1CCN(c2ccc3c(c2)nc(NNC(=O)c2cnccn2)c2cccn23)CC1
786-0 renal
  GI50: 401 nM
  TGI: 2400 nM
A498 renal
  GI50: 1770 nM
  TGI: 3320 nM
A549 NSCLC
  GI50: 768 nM
  TGI: 12100 nM
ACHN renal
  GI50: 256 nM
  TGI: 1740 nM
BT-549 breast
  GI50: 849 nM
  TGI: 13400 nM
CAKI-1 renal
  GI50: 463 nM
  TGI: 5270 nM
CCRF-CEM leukemia
  GI50: 182 nM
  TGI: 1980 nM
COLO 205 colon
  GI50: 445 nM
  TGI: 9940 nM
DU-145 prostate
  GI50: 912 nM
  TGI: 8580 nM
EKVX NSCLC
  GI50: 277 nM
  TGI: 3470 nM
HCC-2998 colon
  GI50: 453 nM
  TGI: 5800 nM
HCT-116 colon
  GI50: 259 nM
  TGI: 5610 nM
HCT-15 colon
  GI50: 109 nM
  TGI: 1790 nM
HL-60(TB) leukemia
  GI50: 175 nM
  TGI: 1650 nM
HOP-62 NSCLC
  GI50: 361 nM
  TGI: 11300 nM
HOP-92 NSCLC
  GI50: 564 nM
  TGI: 5540 nM
HS 578T breast
  GI50: 3600 nM
  TGI: 70300 nM
HT29 colon
  GI50: 505 nM
  TGI: 4560 nM
IGROV1 ovarian
  GI50: 413 nM
  TGI: 10700 nM
K-562 leukemia
  GI50: 631 nM
  TGI: 11600 nM
KM12 colon
  GI50: 359 nM
  TGI: 14900 nM
LOX IMVI melanoma
  GI50: 203 nM
  TGI: 6250 nM
M14 melanoma
  GI50: 517 nM
  TGI: 3870 nM
MALME-3M melanoma
  GI50: 1620 nM
  TGI: 6990 nM
MCF7 breast
  GI50: 697 nM
  TGI: 7500 nM
MDA-MB-231 breast
  GI50: 607 nM
  TGI: 6950 nM
MDA-MB-435
  GI50: 1960 nM
  TGI: 18400 nM
MDA-MB-468 breast
  GI50: 324 nM
  TGI: 2370 nM
MOLT-4 leukemia
  GI50: 244 nM
NCI-H226 lung
  GI50: 801 nM
  TGI: 3120 nM
NCI-H23 lung
  GI50: 801 nM
  TGI: 12300 nM
NCI-H460 lung
  GI50: 229 nM
  TGI: 4720 nM
NCI-H522 lung
  GI50: 944 nM
  TGI: 6690 nM
NCI/ADR-RES ovarian
  GI50: 829 nM
  TGI: 2970 nM
OVCAR-3 ovarian
  GI50: 406 nM
  TGI: 5840 nM
OVCAR-4 ovarian
  GI50: 605 nM
  TGI: 12900 nM
OVCAR-5 ovarian
  GI50: 1180 nM
  TGI: 12100 nM
OVCAR-8 ovarian
  GI50: 383 nM
  TGI: 7010 nM
PC-3 prostate
  GI50: 386 nM
  TGI: 8510 nM
RPMI-8226 leukemia
  GI50: 756 nM
  TGI: 12700 nM
RXF 393 renal
  GI50: 1060 nM
  TGI: 3350 nM
SF-268 CNS
  GI50: 479 nM
  TGI: 13200 nM
SF-295 CNS
  GI50: 229 nM
  TGI: 3150 nM
SF-539 CNS
  GI50: 645 nM
  TGI: 6830 nM
SK-MEL-2 melanoma
  GI50: 1210 nM
  TGI: 6140 nM
SK-MEL-28 melanoma
  GI50: 719 nM
  TGI: 12100 nM
SK-MEL-5 melanoma
  GI50: 1090 nM
  TGI: 2770 nM
SK-OV-3 ovarian
  GI50: 538 nM
  TGI: 5020 nM
SN12C renal
  GI50: 583 nM
  TGI: 11800 nM
SNB-19 CNS
  GI50: 812 nM
  TGI: 14600 nM
SNB-75 CNS
  GI50: 2930 nM
  TGI: 18000 nM
SR leukemia
  GI50: 160 nM
SW-620 colon
  GI50: 638 nM
  TGI: 12600 nM
T-47D breast
  GI50: 1720 nM
  TGI: 9440 nM
TK-10 renal
  GI50: 158 nM
  TGI: 2320 nM
U251 CNS
  GI50: 370 nM
  TGI: 11700 nM
UACC-257 melanoma
  GI50: 2150 nM
  TGI: 7100 nM
UACC-62 melanoma
  GI50: 444 nM
  TGI: 2710 nM
UO-31 renal
  GI50: 96.4 nM
  TGI: 1510 nM
